# The source made the active and inactive calls. The calls are words filed in the database; no cut-off is given here.
# Tests used:
# Format in all cases: functional, organism-based
# Leishmania amazonensis [1] = assay: Antiparasitic activity against Leishmania amazonensis at 25 ug/mL
# Leishmania donovani [2] = assay: Antiparasitic activity against Leishmania donovani assessed as lysis of parasite at 100 ug/mL
# Leishmania amazonensis [3] = assay: Antiparasitic activity against Leishmania amazonensis assessed as lysis of parasite at 100 ug/mL
# Trypanosoma cruzi [4] = assay: Antiparasitic activity against Trypanosoma cruzi Y trypomastigotes assessed as lysis of parasite after 24 hrs
# Leishmania donovani [5] = assay: Antiparasitic activity against Leishmania donovani at 25 ug/mL
# Leishmania braziliensis [6] = assay: Antiparasitic activity against Leishmania braziliensis at 25 ug/mL
# Leishmania braziliensis [7] = assay: Antiparasitic activity against Leishmania braziliensis assessed as lysis of parasite at 100 ug/mL
# Leishmania amazonensis [8] = assay: Antiparasitic activity against Leishmania amazonensis assessed as lysis of parasite at 5 ug/mL
# Leishmania donovani [9] = assay: Antiparasitic activity against Leishmania donovani assessed as lysis of parasite at 5 ug/mL
# Leishmania braziliensis [10] = assay: Antiparasitic activity against Leishmania braziliensis assessed as lysis of parasite at 5 ug/mL
# Trypanosoma cruzi [11] = assay: Antiparasitic activity against Trypanosoma cruzi Y trypomastigotes assessed as lysis of parasite at 250 ug/mL after 24 hrs
Compound,Activity (Leishmania donovani [2]),Activity (Leishmania amazonensis [3]),Activity (Trypanosoma cruzi [4]),Activity (Leishmania braziliensis [7]),other results
CC(C)=CCC/C(C)=C/CC1=C(O)C(=O)C(C)(CC=C(C)C)CC1=O (stereo not given),Active,Active,inactive,Active,Activity (Leishmania amazonensis [1]): Active; Activity (Leishmania donovani [5]): Active; Activity (Leishmania braziliensis [6]): Active
N=C(N)c1ccc(OCCCCCOc2ccc(C(=N)N)cc2)cc1,,,,,Activity (Leishmania amazonensis [8]): Active; Activity (Leishmania donovani [9]): Active; Activity (Leishmania braziliensis [10]): Active
CC(C)=CCCC1(C)C=CC2=C(O1)C(=O)C(C)=C(CC=C(C)C)C2=O (stereo not given),,,inactive,,
CN(C)c1ccc(C(=C2C=CC(=[N+](C)C)C=C2)c2ccc(N(C)C)cc2)cc1,,,,,Activity (Trypanosoma cruzi [11]): Active
MEGLUMINE ANTIMONATE,40%,40%,,40%,

# — ChEMBL document CHEMBL1158220, “New prenylated quinones from Peperomia galioides” (J Nat Prod, 1996)
